Measurements as given in ChEMBL document CHEMBL3739372 (Bioorg Med Chem, 2015).

Experiment: Inhibition of Influenza B virus neuraminidase R152K mutant

CCOC(=O)C1=C[C@@H](OC(CC)CC)[C@H](NC(C)=O)[C@@H](N)C1 [OSELTAMIVIR]
IC50: 85 µM

CCOC(=O)c1cn(CC)c2ccc(-n3cc(C4=CCCCC4)nn3)cc2c1=O
IC50: 30 µM
